Consider 31 compounds from patent US8686150B2 (Sanofi, priority 2011, dated 2014).

Each structure is given as a SMILES string.

The experiment has as its target T1, human full-length recombinant PKC βII (Homo sapiens, UniProt P05771).
T1 construct: Active human full-length recombinant PKC βII; purchased Invitrogen GmbH, Darmstadt, Germany
Briefly: Determination of PKC βII inhibition (Caliper mobility-shift kinase assay, Fluorescein-RFARKGSLRQKNV peptide substrate). Type of experiment: biochemical. The note with it: example compounds at a final concentration of 1.14 μM (±0.15 μM). A digest of the protocol: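 Compounds were tested at 1.14 μM final. Enzyme was activated by PS, DAG and CaCl2 in Hepes pH 7.4 with MgCl2, with substrate 3 μM and ATP 120 μM as pre-mix concentrations. After 60 min at 32 °C and an EDTA stop, Caliper separation gave fractional turnover, which was normalised to no-compound and no-enzyme controls.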

T1 sequence (P05771 1-673 isoform P05771-2): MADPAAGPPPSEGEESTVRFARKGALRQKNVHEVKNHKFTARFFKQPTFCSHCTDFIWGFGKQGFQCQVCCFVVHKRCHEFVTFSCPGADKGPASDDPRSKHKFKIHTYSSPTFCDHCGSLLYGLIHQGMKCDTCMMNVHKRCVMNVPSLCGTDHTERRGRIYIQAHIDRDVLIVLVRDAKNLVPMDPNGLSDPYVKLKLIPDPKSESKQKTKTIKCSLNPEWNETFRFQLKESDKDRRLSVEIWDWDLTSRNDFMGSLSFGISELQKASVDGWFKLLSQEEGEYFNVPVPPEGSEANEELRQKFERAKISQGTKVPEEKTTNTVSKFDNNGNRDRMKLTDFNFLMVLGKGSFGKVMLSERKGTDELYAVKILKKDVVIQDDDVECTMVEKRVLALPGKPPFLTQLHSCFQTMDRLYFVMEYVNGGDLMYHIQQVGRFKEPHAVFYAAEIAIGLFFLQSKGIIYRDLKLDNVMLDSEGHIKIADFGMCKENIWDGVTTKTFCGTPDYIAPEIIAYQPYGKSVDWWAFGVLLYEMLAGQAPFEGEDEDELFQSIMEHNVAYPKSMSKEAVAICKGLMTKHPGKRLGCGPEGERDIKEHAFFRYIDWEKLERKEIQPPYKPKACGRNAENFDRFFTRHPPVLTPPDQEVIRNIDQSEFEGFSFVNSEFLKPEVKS

As a reminder, the inhibition is the relative decrease from the control value, in per cent. Turning to `Cc1n[nH]c2nc(-c3ccc(O)cc3)cc(C(=O)NC[C@H]3CC[C@@H](N)CC3)c12` [Example 105, 6-(4-Hydroxy-phenyl)-3-methyl-1H-pyrazolo[3,4-b]pyridine-4-carboxylic acid (cis-4-amino-cyclohexylmethyl)-amide], the inhibition at 1.14 µM is 53%.
For `Cc1n[nH]c2nc(-c3ccc(O)cc3)cc(C(=O)NC3CCNC3)c12` (stereo not shown) [Example 106, 6-(4-Hydroxy-phenyl)-3-methyl-1H-pyrazolo[3,4-b]pyridine-4-carboxylic acid pyrrolidin-3-ylamide], the inhibition at 1.14 µM came out at 77%.
In the case of `Cc1n[nH]c2nc(-c3ccc(O)cc3)cc(C(=O)NC(CN)c3ccc(F)cc3)c12` (stereo not shown) [Example 107, 6-(4-Hydroxy-phenyl)-3-methyl-1H-pyrazolo[3,4-b]pyridine-4-carboxylic acid [2-amino-1-(4-fluoro-phenyl)-ethyl]-amide] it was 83%; in that of `Cc1n[nH]c2nc(-c3ccc(O)cc3)cc(C(=O)N3CCNCC34CCCC4)c12` [Example 108, (6,9-Diaza-spiro[4.5]dec-6-yl)-[6-(4-hydroxy-phenyl)-3-methyl-1H-pyrazolo[3,4-b]pyridin-4-yl]-methanone], 96%.
`CNC1CCN(C(=O)c2cc(-c3ccc(O)cc3)nc3[nH]nc(C)c23)CC1` [Example 109, [6-(4-Hydroxy-phenyl)-3-methyl-1H-pyrazolo[3,4-b]pyridin-4-yl]-(4-methylamino-piperidin-1-yl)-methanone]: the inhibition at 1.14 µM stood at 88%.
As to `Cc1n[nH]c2nc(-c3ccc(O)cc3)cc(C(=O)N3CCC[C@@H](CN)C3)c12` [Example 110, ((S)-3-Aminomethyl-piperidin-1-yl)-[6-(4-hydroxy-phenyl)-3-methyl-1H-pyrazolo[3,4-b]pyridin-4-yl]-methanone], the inhibition at 1.14 µM is 65%.
With `Cc1n[nH]c2nc(-c3ccc(O)cc3)cc(C(=O)N3CC4CCC(C3)N4)c12` [Example 111, 3,8-Diaza-bicyclo[3.2.1]oct-3-yl-[6-(4-hydroxy-phenyl)-3-methyl-1H-pyrazolo[3,4-b]pyridin-4-yl]-methanone] the figure was 97%; with `Cc1n[nH]c2nc(-c3ccc(O)cc3)cc(C(=O)N3C[C@@H](C)NC[C@@H]3C)c12` [Example 112, ((2S,5R)-2,5-Dimethyl-piperazin-1-yl)-[6-(4-hydroxy-phenyl)-3-methyl-1H-pyrazolo[3,4-b]pyridin-4-yl]-methanone], 92%; with `Cc1n[nH]c2nc(-c3ccc(O)cc3)cc(C(=O)N3CC(C)(C)NCC3C)c12` (stereo not shown) [Example 113, [6-(4-Hydroxy-phenyl)-3-methyl-1H-pyrazolo[3,4-b]pyridin-4-yl]-(2,5,5-trimethyl-piperazin-1-yl)-methanone], 93%.
In the case of `Cc1n[nH]c2nc(-c3ccc(O)cc3)cc(C(=O)N3CCNCC3C(F)(F)F)c12` (stereo not shown) [Example 114, [6-(4-Hydroxy-phenyl)-3-methyl-1H-pyrazolo[3,4-b]pyridin-4-yl]-(2-trifluoromethyl-piperazin-1-yl)-methanone] it was 87%; in that of `CCC1(NC(=O)c2cc(-c3ccc(O)cc3)nc3[nH]nc(C)c23)CCCNC1` (stereo not shown) [Example 115, 6-(4-Hydroxy-phenyl)-3-methyl-1H-pyrazolo[3,4-b]pyridine-4-carboxylic acid (3-ethyl-piperidin-3-yl)-amide], 83%.
With `Cc1n[nH]c2nc(-c3ccc(O)cc3)cc(C(=O)NCC3(N)CCCCCC3)c12` [Example 116, 6-(4-Hydroxy-phenyl)-3-methyl-1H-pyrazolo[3,4-b]pyridine-4-carboxylic acid (1-amino-cycloheptylmethyl)-amide] the figure was 76%.
As for `Cc1n[nH]c2nc(-c3ccc(O)cc3)cc(C(=O)N3CCCC(C)(N)C3)c12` (stereo not shown) [Example 117, (3-Amino-3-methyl-piperidin-1-yl)-[6-(4-hydroxy-phenyl)-3-methyl-1H-pyrazolo[3,4-b]pyridin-4-yl]-methanone], the inhibition at 1.14 µM was determined as 89%.
As for `CCCC1(NC(=O)c2cc(-c3ccc(O)cc3)nc3[nH]nc(C)c23)CCNCC1` [Example 118, 6-(4-Hydroxy-phenyl)-3-methyl-1H-pyrazolo[3,4-b]pyridine-4-carboxylic acid (4-propyl-piperidin-4-yl)-amide], the inhibition at 1.14 µM was determined as 98%.
On to `Cc1n[nH]c2nc(-c3ccc(O)cc3)cc(C(=O)N[C@@H]3CCC[C@H]3N)c12` [Example 120, 6-(4-Hydroxy-phenyl)-3-methyl-1H-pyrazolo[3,4-b]pyridine-4-carboxylic acid ((1R,2R)-2-amino-cyclopentyl)-amide], for which the inhibition at 1.14 µM was found to be 88%.
In the case of `Cc1n[nH]c2nc(-c3ccc(O)cc3)cc(C(=O)N3CC(C)(C)NCC3(C)C)c12` [Example 121, [6-(4-Hydroxy-phenyl)-3-methyl-1H-pyrazolo[3,4-b]pyridin-4-yl]-(2,2,5,5-tetramethyl-piperazin-1-yl)-methanone] it was 99%.
In the case of `Cc1n[nH]c2nc(-c3ccc(O)cc3)cc(C(=O)N3CCC(C)(N)C3)c12` (stereo not shown) [Example 122, (3-Amino-3-methyl-pyrrolidin-1-yl)-[6-(4-hydroxy-phenyl)-3-methyl-1H-pyrazolo[3,4-b]pyridin-4-yl]-methanone] it was 89%; in that of `CCCC1(NC(=O)c2cc(-c3ccc(O)cc3)nc3[nH]nc(C)c23)CCCNC1` (stereo not shown) [Example 124, 6-(4-Hydroxy-phenyl)-3-methyl-1H-pyrazolo[3,4-b]pyridine-4-carboxylic acid (3-propyl-piperidin-3-yl)-amide], 78%.
As to `CCCC1(NC(=O)c2cc(-c3ccc(O)cc3)nc3[nH]nc(C)c23)CCNC1` (stereo not shown) [Example 125, 6-(4-Hydroxy-phenyl)-3-methyl-1H-pyrazolo[3,4-b]pyridine-4-carboxylic acid (3-propyl-pyrrolidin-3-yl)-amide], the inhibition at 1.14 µM was 52%.
`CCC(CCN)NC(=O)c1cc(-c2ccc(O)cc2)nc2[nH]nc(C)c12` (stereo not shown) [Example 127, 6-(4-Hydroxy-phenyl)-3-methyl-1H-pyrazolo[3,4-b]pyridine-4-carboxylic acid (3-amino-1-ethyl-propyl)-amide]: the inhibition at 1.14 µM came out at 90%.
With `Cc1n[nH]c2nc(-c3ccc(O)cc3)cc(C(=O)NC(C)(C)CCN)c12` [Example 128, 6-(4-Hydroxy-phenyl)-3-methyl-1H-pyrazolo[3,4-b]pyridine-4-carboxylic acid (3-amino-1,1-dimethyl-propyl)-amide] the figure was 91%; with `Cc1n[nH]c2nc(-c3ccc(O)cc3)cc(C(=O)NCCC(C)(C)N)c12` [Example 129, 6-(4-Hydroxy-phenyl)-3-methyl-1H-pyrazolo[3,4-b]pyridine-4-carboxylic acid (3-amino-3-methyl-butyl)-amide], 69%; with `Cc1n[nH]c2nc(-c3ccc(O)cc3)cc(C(=O)NC[C@H]3CC[C@H](N)CC3)c12` [Example 130, 6-(4-Hydroxy-phenyl)-3-methyl-1H-pyrazolo[3,4-b]pyridine-4-carboxylic acid (trans-4-amino-cyclohexylmethyl)-amide], 47%.
With `Cc1n[nH]c2nc(-c3ccc(O)cc3)cc(C(=O)NC(CCN)c3ccccc3)c12` (stereo not shown) [Example 131, 6-(4-Hydroxy-phenyl)-3-methyl-1H-pyrazolo[3,4-b]pyridine-4-carboxylic acid (3-amino-1-phenyl-propyl)-amide] the figure was 68%; with `Cc1n[nH]c2nc(-c3ccc(O)cc3)cc(C(=O)NC(CN(C)C)c3ccccc3)c12` (stereo not shown) [Example 132, 6-(4-Hydroxy-phenyl)-3-methyl-1H-pyrazolo[3,4-b]pyridine-4-carboxylic acid (2-dimethylamino-1-phenyl-ethyl)-amide], 72%.
In the case of `Cc1n[nH]c2nc(-c3ccc(O)cc3)cc(C(=O)NCC(C)(C)N)c12` [Example 133, 6-(4-Hydroxy-phenyl)-3-methyl-1H-pyrazolo[3,4-b]pyridine-4-carboxylic acid (2-amino-2-methyl-propyl)-amide] it was 89%.
As to `Cc1n[nH]c2nc(-c3ccc(O)cc3)cc(C(=O)NC(C)(C)C(C)(C)N)c12` [Example 134, 6-(4-Hydroxy-phenyl)-3-methyl-1H-pyrazolo[3,4-b]pyridine-4-carboxylic acid (2-amino-1,1,2-trimethyl-propyl)-amide], the inhibition at 1.14 µM worked out at 62%.
On to `Cc1n[nH]c2nc(-c3c(F)cc(O)cc3F)cc(C(=O)N3CCNCC3(C)C)c12` [Example 135, [6-(2,6-Difluoro-4-hydroxy-phenyl)-3-methyl-1H-pyrazolo[3,4-b]pyridin-4-yl]-(2,2-dimethyl-piperazin-1-yl)-methanone], for which the inhibition at 1.14 µM came to 96%.
With `Cc1cc(O)ccc1-c1cc(C(=O)N2CCNCC2c2cc(F)cc(F)c2)c2c(C)n[nH]c2n1` (stereo not shown) [Example 136, [2-(3,5-Difluoro-phenyl)-piperazin-1-yl]-[6-(4-hydroxy-2-methyl-phenyl)-3-methyl-1H-pyrazolo[3,4-b]pyridin-4-yl]-methanone] the figure was 100%; with `Cc1cc(O)ccc1-c1cc(C(=O)N2CCNCC2c2ccc(Br)cc2)c2c(C)n[nH]c2n1` (stereo not shown) [Example 137, [2-(4-Bromo-phenyl)-piperazin-1-yl]-[6-(4-hydroxy-2-methyl-phenyl)-3-methyl-1H-pyrazolo[3,4-b]pyridin-4-yl]-methanone], 99%; with `Cc1cc(O)ccc1-c1cc(C(=O)N2CCNCC2c2ccc(F)cc2)c2c(C)n[nH]c2n1` (stereo not shown) [Example 138, [2-(4-Fluoro-phenyl)-piperazin-1-yl]-[6-(4-hydroxy-2-methyl-phenyl)-3-methyl-1H-pyrazolo[3,4-b]pyridin-4-yl]-methanone], 98%.
